In ChEMBL document CHEMBL1127655, “The stabilization of DNA topoisomerase II cleavable complex by mitonafide analogs” (Bioorg Med Chem Lett, 1994) one finds C50 data, which are given here for 21 compounds.

Holding throughout (type): nucleic-acid assay
Holding throughout (details): Bos taurus

The subject of test [1] is Calf thymus DNA. The experiment in a line: Calf thymus DNA binding affinity compared to ethidium bromide.
For test [2], the system named is Nucleic Acid. The experiment in a line: DNA binding affinity by a decrease in fluorescence of an ethidium bromide calf thymus DNA solution; (34%).
Test [3] has as its system Nucleic Acid. Kind of test: DNA binding affinity by a decrease in fluorescence of an ethidium bromide calf thymus DNA solution; (41%).
Test [4] concerns Nucleic Acid. The experiment in a line: DNA binding affinity by a decrease in fluorescence of an ethidium bromide calf thymus DNA solution; (36%).
Test [5] deals with Nucleic Acid. Kind of test: DNA binding affinity by a decrease in fluorescence of an ethidium bromide calf thymus DNA solution; (39%).
Test [6] has as its system Nucleic Acid. Kind of test: DNA binding affinity by a decrease in fluorescence of an ethidium bromide calf thymus DNA solution; (12%).
The test system of test [7] is Nucleic Acid. Kind of test: DNA binding affinity by a decrease in fluorescence of an ethidium bromide calf thymus DNA solution; (25%).
Test [8] concerns Nucleic Acid. Kind of test: DNA binding affinity by a decrease in fluorescence of an ethidium bromide calf thymus DNA solution; (33%).
The subject of test [9] is Nucleic Acid. Kind of test: DNA binding affinity by a decrease in fluorescence of an ethidium bromide calf thymus DNA solution; (10%).
In test [10] the test system is Nucleic Acid. Kind of test: DNA binding affinity by a decrease in fluorescence of an ethidium bromide calf thymus DNA solution (0%).

Regarding `CN(C)CCN1C(=O)c2cccc3cccc(c23)C1=O`, the C50 in test [1] is 100 µM.
The compound `O=C1c2cccc3c([N+](=O)[O-])ccc(c23)C(=O)N1CCO` came in with a C50 in test [2] greater than 100 µM.
With `CNCCN1C(=O)c2cccc3cccc(c23)C1=O`, in [3], the C50 was greater than 100 µM.
`NCCN1C(=O)c2cccc3c([N+](=O)[O-])ccc(c23)C1=O` yielded a C50 in [1] of 17 µM.
In the case of `O=C1c2cccc3c([N+](=O)[O-])ccc(c23)C(=O)N1CCN1CCCC1`, in test [1], the C50 came to 11 µM.
In the case of `CN(C)CCCN1C(=O)c2cccc3c([N+](=O)[O-])ccc(c23)C1=O`, the C50 in [4] was greater than 100 µM.
As to `CCN(CC)CCN1C(=O)c2cccc3c([N+](=O)[O-])ccc(c23)C1=O`, the C50 in test [1] is 28 µM.
Same read-out and setting: under `CCN(CC)CCN1C(=O)c2cccc3cc([N+](=O)[O-])cc(c23)C1=O` stands 35 µM.
In [5], `O=C1c2cccc3cc([N+](=O)[O-])cc(c23)C(=O)N1CCN1CCNCC1` registered a C50 greater than 100 µM.
`CCN(CC)CCN1C(=O)c2cccc3cccc(c23)C1=O`: in test [1], the C50 was 100 µM.
In test [1], `O=C1c2cccc3cc([N+](=O)[O-])cc(c23)C(=O)N1CCN1CCCC1` gave a C50 of 10 µM.
On to `CN(C)CCCN1C(=O)c2cccc3cc([N+](=O)[O-])cc(c23)C1=O`, for which the C50 in test [1] was 16 µM.
`O=C1c2cccc3cccc(c23)C(=O)N1CCO` displayed a C50 in [6] greater than 100 µM.
As to `O=C1c2cccc3cc([N+](=O)[O-])cc(c23)C(=O)N1CCO`, the C50 in [7] is greater than 100 µM.
On to `CN(C)CCN1C(=O)c2cccc3cc([N+](=O)[O-])cc(c23)C1=O`, for which the C50 in [1] stood at 11 µM.
The compound `CN(C)CCN1C(=O)c2cccc3c([N+](=O)[O-])ccc(c23)C1=O` returned a C50 in [8] greater than 100 µM.
In test [9], `O=C1c2cccc3cc([N+](=O)[O-])cc(c23)C(=O)N1CCc1ccccn1` returned a C50 greater than 100 µM.
As for `O=C1c2cccc3c([N+](=O)[O-])ccc(c23)C(=O)N1CCc1ccccn1`, the C50 in [10] was greater than 100 µM.
`NCCN1C(=O)c2cccc3cccc(c23)C1=O` registered a C50 in test [1] of 50 µM.
Same read-out and setting: under `CNCCN1C(=O)c2cccc3c([N+](=O)[O-])ccc(c23)C1=O` stands 19 µM; under `CNCCN1C(=O)c2cccc3cc([N+](=O)[O-])cc(c23)C1=O`, 14 µM.
